Laboratory results taken from ChEMBL document CHEMBL1201862, “PubChem BioAssay data set” (2004).
Activity calls are given as the source filed them.

Columns and labels:
[1] = molecular target: T1, Voltage-gated N-type calcium channel alpha-1B subunit/Amyloid beta A4 precursor protein-binding family A member 1 (Homo sapiens, UniProt Q00975+Q02410); type: protein assay
[2] = molecular target: T1, Voltage-gated N-type calcium channel alpha-1B subunit/Amyloid beta A4 precursor protein-binding family A member 1; type: protein assay; remark: listed apart in the source
[3] = molecular target: T2, Dual specificity protein phosphatase 3 (Homo sapiens, UniProt P51452); experiment: VHR1 phosphatase inhibitors, biochemical (AID 1878)
[4] = molecular target: T2, Dual specificity protein phosphatase 3; experiment: VHR1 phosphatase inhibitors, primary screen, biochemical, absorbance, uHTS (AID 1654)
[5] = molecular target: Eukaryotic translation initiation factor 4E (Mus musculus, UniProt P63073); experiment: blockers of eIF4G binding by eIF4E – biochemical, TR-FRET, dose response (AID 855); type: functional;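 also: potency for disrupting eIF4E binding to eIF4GI seen as loss of FRET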
[6] = molecular target: Induced myeloid leukemia cell differentiation protein Mcl-1 (Homo sapiens, UniProt Q07820); type: functional
[7] = molecular target: T3, Dual specificity protein phosphatase 6 (Rattus norvegicus, UniProt Q64346); experiment: inhibition of rat DUSP6 enzyme activity – biochemical, in vitro, primary screen (AID 425)
T3 sequence (Q64346 whole entry): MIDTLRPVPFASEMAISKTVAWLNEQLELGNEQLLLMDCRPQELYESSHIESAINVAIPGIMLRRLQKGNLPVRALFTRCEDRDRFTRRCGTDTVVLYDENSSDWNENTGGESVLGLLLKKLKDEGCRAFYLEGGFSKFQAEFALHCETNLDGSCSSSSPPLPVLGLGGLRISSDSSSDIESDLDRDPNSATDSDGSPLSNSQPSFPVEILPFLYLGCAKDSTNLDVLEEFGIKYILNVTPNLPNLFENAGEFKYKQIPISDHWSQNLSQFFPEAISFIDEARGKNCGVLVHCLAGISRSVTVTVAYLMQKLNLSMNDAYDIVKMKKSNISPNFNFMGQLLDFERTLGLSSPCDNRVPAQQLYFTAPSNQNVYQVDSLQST

Cannabinoid receptor 1 = Cannabinoid receptor 1 (Homo sapiens, UniProt P21554); experiment: SAR analysis of antagonists of the Cannabinoid Receptor 1 using an Image-Based Assay. [Related pubchem assays (depositor defined):AID1961, AID1965]; type: functional
Cannabinoid receptor 2 [8] = molecular target: T4, Cannabinoid receptor 2 (Homo sapiens, UniProt P34972); experiment: SAR analysis of antagonists of the Cannabinoid Receptor 2 using an Image-Based Assay - Set 2. [Related pubchem assays (depositor defined):AID1961, AID1965]; type: functional
Cannabinoid receptor 2 [9] = molecular target: T4, Cannabinoid receptor 2; experiment: SAR analysis of agonists of the Cannabinoid Receptor 2 using an Image-Based Assay - Set 2. [Related pubchem assays (depositor defined):AID1961, AID1965]; type: functional
[10] = molecular target: T5, G-protein coupled receptor 55 (Homo sapiens, UniProt Q9Y2T6); experiment: selective activators of receptor GPR55 – imaging, U2OS cells, beta-arrestin-GFP redistribution, primary screen (AID 1961); type: functional
[11] = molecular target: T5, G-protein coupled receptor 55; experiment: SAR analysis of selective Agonists of GPR55 using an Image-Based Assay. [Related pubchem assays (depositor defined):AID1961, AID1965]; type: functional
[12] = molecular target: T6, Endoribonuclease toxin MazF (Escherichia coli K-12, UniProt P0AE70); experiment: substrate-only fluorescence increase artefacts – biochemical, single-stranded RNase substrate, counter-screen for MazEF activator project, dose response (AID 588502); type: functional
T6 sequence (P0AE70 whole entry): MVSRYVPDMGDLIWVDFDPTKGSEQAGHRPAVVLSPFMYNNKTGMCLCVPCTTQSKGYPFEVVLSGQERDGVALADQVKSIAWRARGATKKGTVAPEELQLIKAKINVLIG

Troponin, cardiac muscle = Troponin, cardiac muscle (Homo sapiens, UniProt P19429+P45379+P63316); experiment: Fluorescence-based biochemical high throughput dose response assay for activators of the calcium sensitivity of cardiac Regulated Thin Filaments (RTF). [Related pubchem assays (depositor defined):AID493008, AID493018, AID504382, AID504383]; type: protein-complex assay
[13] = molecular target: T6, Endoribonuclease toxin MazF; experiment: activation of MazEF endoribonuclease cleavage – biochemical, fluorescence, single-stranded RNA substrate, uHTS hits, dose response (AID 588481); type: functional
[14] = molecular target: T7, Tyrosine-protein phosphatase non-receptor type 7 (Homo sapiens, UniProt P35236); type: functional
T7 sequence (P35236 whole entry): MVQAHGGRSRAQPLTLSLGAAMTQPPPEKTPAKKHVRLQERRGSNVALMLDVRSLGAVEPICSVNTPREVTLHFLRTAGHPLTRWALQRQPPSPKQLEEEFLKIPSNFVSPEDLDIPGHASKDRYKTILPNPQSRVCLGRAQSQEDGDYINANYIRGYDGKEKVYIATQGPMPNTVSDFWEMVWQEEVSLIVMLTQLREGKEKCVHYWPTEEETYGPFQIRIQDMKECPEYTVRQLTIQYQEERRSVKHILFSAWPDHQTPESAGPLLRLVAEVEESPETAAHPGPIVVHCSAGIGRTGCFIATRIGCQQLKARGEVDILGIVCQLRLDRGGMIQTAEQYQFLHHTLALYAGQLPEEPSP

[15] = molecular target: T8, Tyrosine-protein phosphatase non-receptor type 22 (Homo sapiens, UniProt Q9Y2R2); type: functional
T8 sequence (Q9Y2R2 whole entry): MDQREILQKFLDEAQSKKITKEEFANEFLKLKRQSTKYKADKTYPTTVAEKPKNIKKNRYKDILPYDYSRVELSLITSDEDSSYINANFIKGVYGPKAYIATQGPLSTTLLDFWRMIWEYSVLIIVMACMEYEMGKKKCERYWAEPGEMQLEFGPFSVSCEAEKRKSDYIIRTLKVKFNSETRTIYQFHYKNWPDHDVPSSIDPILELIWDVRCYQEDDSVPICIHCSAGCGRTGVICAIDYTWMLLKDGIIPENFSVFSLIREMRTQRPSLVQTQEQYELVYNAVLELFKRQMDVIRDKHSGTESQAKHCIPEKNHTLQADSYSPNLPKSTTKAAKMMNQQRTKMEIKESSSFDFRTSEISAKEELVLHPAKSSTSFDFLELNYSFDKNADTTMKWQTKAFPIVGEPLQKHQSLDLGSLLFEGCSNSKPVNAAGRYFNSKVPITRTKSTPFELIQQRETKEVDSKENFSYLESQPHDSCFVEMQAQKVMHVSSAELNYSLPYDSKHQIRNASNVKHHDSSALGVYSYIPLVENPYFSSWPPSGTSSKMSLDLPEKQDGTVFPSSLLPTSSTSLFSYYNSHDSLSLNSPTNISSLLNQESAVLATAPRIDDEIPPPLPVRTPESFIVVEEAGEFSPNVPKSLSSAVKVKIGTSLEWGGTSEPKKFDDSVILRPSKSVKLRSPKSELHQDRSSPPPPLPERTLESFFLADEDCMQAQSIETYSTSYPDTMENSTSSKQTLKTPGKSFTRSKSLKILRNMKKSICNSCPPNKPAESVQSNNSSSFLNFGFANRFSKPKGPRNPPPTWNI

[16] = molecular target: T8, Tyrosine-protein phosphatase non-receptor type 22; type: functional; remark: listed apart in the source
Bcl-2-like protein 10 = molecular target: T9, Bcl-2-like protein 10 (Homo sapiens, UniProt Q9HD36); experiment: Bcl-B/TR3 peptide binding disruption – biochemical, fluorescence polarization, FITC-TR3 peptide, selectivity assay for Bfl-1 inhibitor project, primary screen (AID 748);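 also: fluorescence polarization from a fluorescein-labelled TR3 peptide binding purified Bcl-B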
T9 sequence (Q9HD36 whole entry): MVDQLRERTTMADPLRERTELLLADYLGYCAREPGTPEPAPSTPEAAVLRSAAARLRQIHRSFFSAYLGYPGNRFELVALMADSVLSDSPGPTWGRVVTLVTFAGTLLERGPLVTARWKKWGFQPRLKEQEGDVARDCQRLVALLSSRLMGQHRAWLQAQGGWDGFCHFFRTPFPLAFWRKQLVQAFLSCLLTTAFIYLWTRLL

[17] = molecular target: T10, Runt-related transcription factor 1/Core-binding factor subunit beta (Homo sapiens, UniProt Q01196+Q13951); experiment: disruptors of Runt domain/CBFb-SMMHC interaction – biochemical, FRET, Cerulean-Runt, Venus-CBFb-SMMHC, uHTS, […] (AID 1434); type: protein assay
[18] = molecular target: T10, Runt-related transcription factor 1/Core-binding factor subunit beta; experiment: Runt domain/CBFb-SMMHC interaction disruptors – biochemical, TR-FRET (AID 1438); type: protein assay
[19] = molecular target: Glutathione-S-transferase (Schistosoma japonicum, UniProt Q26513); experiment: GST-antibody interaction or FRET quenching – biochemical, TR-FRET, artefact control for Vif-APOBEC3G degradation inhibitor project, dose response (AID 1117362); type: functional
[20] = molecular target: T11, Kappa-type opioid receptor (Homo sapiens, UniProt P41145); experiment: kappa opioid receptor activation potency – imaging, image-based, SAR follow-up (AID 2359); type: functional
Mu-type opioid receptor [21] = molecular target: T12, Mu-type opioid receptor (Homo sapiens, UniProt P35372); experiment: mu opioid receptor activators, image-based, SAR follow-up (AID 2352); type: functional
[22] = molecular target: T13, Delta-type opioid receptor (Homo sapiens, UniProt P41143); experiment: delta opioid receptor blockers – image-based, SAR follow-up (AID 2357); type: functional
[23] = molecular target: T13, Delta-type opioid receptor; experiment: DOR agonists, SAR follow-up, image-based (AID 2370); type: functional
[24] = molecular target: T11, Kappa-type opioid receptor; experiment: kappa opioid receptor blockers, image-based, SAR follow-up (AID 2348); type: functional
[25] = molecular target: T11, Kappa-type opioid receptor; experiment: kappa opioid receptor blockers, cell-based, luminescence, beta-arrestin, SAR follow-up (AID 2285); type: functional
Mu-type opioid receptor [26] = molecular target: T12, Mu-type opioid receptor; experiment: mu opioid receptor blockers – image-based, SAR follow-up (AID 2420); type: functional;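 also: compounds added before stimulation of receptor with agonist DAMGO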
[27] = molecular target: T11, Kappa-type opioid receptor; experiment: SAR analysis of small molecule agonists of the kappa opioid receptor via a luminescent beta-arrestin assay - Set 3. [Related pubchem assays (depositor defined):AID1777, AID1785, AID1786, AID1966, AID2133, AID2136, AID2284, AID2500]; type: functional
[28] = molecular target: Signal transducer and activator of transcription 3 (Homo sapiens, UniProt P40763); experiment: STAT3 blockade with qPCR and toxicity readouts – cell-based, STAT1 panel, cytotoxicity, late-stage follow-up, panel member STAT3 Inhibition (AID 2078)
[29] = molecular target: Signal transducer and activator of transcription 1-alpha/beta (Homo sapiens, UniProt P42224); experiment: STAT3 blockade with qPCR and toxicity readouts – cell-based, STAT1 panel, cytotoxicity, late-stage follow-up, panel member STAT1 Inhibition (AID 2078)

SMILES: COc1cc(/C=C2\SC(=O)N(c3ccc(Cl)cc3)C2=O)cc([N+](=O)[O-])c1O
- IC50 [1]: > 50 µM (inactive)
- IC50 [2]: > 56.8 µM (not active)
- IC50 [3]: 2.3 µM (active)
- IC50 [4]: 2.92 µM (active)
- IC50 [5]: 50 µM (inactive)
- IC50 [6]: 3.07 µM (active)
- IC50 [7]: > 158 µM (not active)

SMILES: CN(C)S(=O)(=O)c1ccc(N2CCCC2)c(C(=O)N2CCN(c3ccc([N+](=O)[O-])cc3)CC2)c1
- IC50 (Cannabinoid receptor 1): > 32 µM (inactive)
- IC50 (Cannabinoid receptor 2 [8]): > 32 µM (inactive)
- EC50 (Cannabinoid receptor 2 [9]): > 32 µM (inactive)
- EC50 [10]: 0.689 µM (active)
- EC50 [11]: 0.66 µM (active)

SMILES: Cc1ccc(N=Nc2c(O)n(CN3CCOCC3)c3ccccc23)cc1
- EC50 [12]: 50.5 µM (inactive)
- EC50 (Troponin, cardiac muscle): > 71.5 µM (inactive)
- EC50 [13]: 39.4 µM (inactive)
- IC50 [14]: > 79.4 µM (inactive)
- IC50 [15]: > 79.4 µM (inactive)
- IC50 [16]: > 79.4 µM (inactive)

SMILES: CN1CCc2c(sc3c2c(NCc2ccco2)nc2nnnn23)C1
- IC50 (Bcl-2-like protein 10): 38.8 µM (active)
- IC50 [17]: 80 µM (inactive)
- IC50 [18]: 56.3 µM (inactive)
- IC50 [19]: 31.1 µM (active)

SMILES: Cc1ccc(C)c(N2CCN(CCCNC(=O)CCn3c(=O)c4cccn4c4cccnc43)CC2)c1
- EC50 [20]: > 32 µM (inactive)
- EC50 (Mu-type opioid receptor [21]): > 32 µM (inactive)
- IC50 [22]: > 32 µM (inactive)
- EC50 [23]: > 32 µM (inactive)
- IC50 [24]: > 32 µM (inactive)
- IC50 [25]: > 10 µM (inactive)
- IC50 (Mu-type opioid receptor [26]): > 32 µM (inactive)

SMILES: Cc1ccc2nc(O)c(CN(Cc3ccccc3)C(=O)c3ccccn3)cc2c1
- EC50 [27]: 9.25 µM (active)

SMILES: O=C(c1ccccc1)C1CCN(c2ncnc3sc4c(c23)CCCC4)CC1
- IC50 [28]: > 18.6 µM (inactive)
- IC50 [29]: > 55.7 µM (inactive)
